Data reported in patent US12280072B2, “Oligosaccharide compound for inhibiting intrinsic coagulation factor X-enzyme complex, and preparation method therefor and uses thereof” (Jiuzhitang Co., Ltd., priority 2017, dated 2025).

Assays:
Format in all cases: biochemical
[1] = test system: plasma; assay: TT (thrombin time) clotting time
[2] = test system: human-controlled plasma; assay: Anticoagulant activity assay: PT clotting time
Protocol: (§1) 8.2 Methods • (1) Preparation of sample solution: Oligosaccharide compounds A1˜A8, B1˜B11 and oligosaccharide mixtures C1, D1, D2 were all dissolved in Tris-HCl buffer and diluted to the desired series of solubility. • (2) Anticoagulant activity assay: 90 μL of human-controlled plasma was added to the sample or 10 μL of the control solution, and then the clotting time (APTT and PT) was detected by the MC-4000 coagulometer according to the method described in the APTT and PT kit instructions. • (3) Coagulation factor inhibitory activity analysis: […]

[3] = test system: human-controlled plasma; assay: Anticoagulant activity assay: APTT clotting time
Protocol: as §1

[4] = target: T1, intrinsic factor Xase (Homo sapiens, UniProt P00740); assay: Xase inhibitory activity assay; details: for IC50: read-out: Drug concentration required to inhibit 50% of coagulation factor activity (IC50, ng/mL) Xase (converted)
T1 construct: 60 nM FIXa; purchased
T1 sequence (P00740 47-191 limits assumed): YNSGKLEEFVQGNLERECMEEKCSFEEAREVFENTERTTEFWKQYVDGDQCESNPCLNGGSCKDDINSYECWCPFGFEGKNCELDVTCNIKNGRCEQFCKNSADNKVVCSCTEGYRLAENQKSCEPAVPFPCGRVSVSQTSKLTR
T1 sequence (P00740 227-461 limits assumed): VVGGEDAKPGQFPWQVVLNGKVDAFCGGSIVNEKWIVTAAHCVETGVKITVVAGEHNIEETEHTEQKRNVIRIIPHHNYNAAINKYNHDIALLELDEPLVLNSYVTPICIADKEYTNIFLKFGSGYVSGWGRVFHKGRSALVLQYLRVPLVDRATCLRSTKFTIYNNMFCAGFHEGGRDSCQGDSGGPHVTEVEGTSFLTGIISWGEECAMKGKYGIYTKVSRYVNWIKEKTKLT
Protocol: Xase inhibitory activity assay: Detection was performed according to kit instructions and literature methods by combining the Factor VIII and […]. Specifically, to each well of a 96-well plate, 30 μL of test solution, control solution, or Tris-HCl buffer (negative control) was added, and 30 μl of FVIII (2 IU/ml), 30 μl of R2 (60 nM FIXa, containing FIIa, PC/PS, Ca^2+) were sequentially added, mixed by shaking the plate, incubated at 37° C. for 2 min; and then 30 μL of R1 (50 nM FX, containing direct thrombin inhibitor) was added, mixed by shaking the plate, incubated at 37° C. for 1 min; and then 30 μL of R3 (FXa chromogenic substrate SXa-11, about 8.4 mM) was added. The absorbance at 405 nm (OD405) was detected with a microplate reader, continuously measuring for 7.5 min at a interval of 30 s. The Xase activity and IC50 value of Xase inhibition of the test sample were calculated based on the OD405 change value.
(§2) Data processing: The average value of OD405 detected by the duplicated well was used as the detection value of the test sample and the reference of each concentration, and the slope of the linear fit between the detected value to the time value (the change rate of the absorbance value OD405/min) indicated enzymatic activity of coagulation factor. Taking the clotting factor activity of the negative control well as 100%, coagulation factor activity (percentage) in the presence of the test sample was calculated. The coagulation factor activity in the presence of the test sample was plotted against the concentration of the test sample, and fitted according to the following formula, to calculate the IC50 value: B=(IC50)^n/{(IC50)^n+[I]^n}
(§3) in the formula, B is the coagulation factor activity (percentage) in the presence of the test sample, [I] is the concentration of the test sample, IC50 is the half inhibitory concentration (concentration of the test sample required to inhibit 50% of the activity), and n is the Hill coefficient. • (4) Effect on surface activation and platelet activity: […]

[5] = target: T2, FXa (Homo sapiens); assay: AT-dependent Xa inhibitory activity assay; details: in presence of AT; for IC50: read-out: Drug concentration required to inhibit 50% of coagulation factor activity (IC50, ng/mL) Xa (AT)
T2 construct: 8 μg/mL FXa solution; purchased
T2 sequence (P01008 33-464): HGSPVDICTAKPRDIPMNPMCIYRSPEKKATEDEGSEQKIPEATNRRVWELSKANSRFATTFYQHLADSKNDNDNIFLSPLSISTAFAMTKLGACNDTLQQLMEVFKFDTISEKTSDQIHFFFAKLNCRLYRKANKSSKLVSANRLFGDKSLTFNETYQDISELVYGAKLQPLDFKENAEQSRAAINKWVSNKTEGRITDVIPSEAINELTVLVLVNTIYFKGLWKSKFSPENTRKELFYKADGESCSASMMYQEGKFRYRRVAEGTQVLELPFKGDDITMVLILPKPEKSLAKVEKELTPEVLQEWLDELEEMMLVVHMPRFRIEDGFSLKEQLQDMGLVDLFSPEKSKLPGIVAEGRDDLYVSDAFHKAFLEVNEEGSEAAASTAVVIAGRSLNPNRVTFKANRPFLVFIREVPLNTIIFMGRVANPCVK
Protocol: AT-dependent Xa inhibitory activity assay: Heparin […] kit was used for detection. To a 96-well plate, 30 μL of sample, control solution or Tris-HCl buffer (negative control) was added, then 30 μL of 1 IU/mL AT solution was added, mixed well and incubated at 37° C. for 1 min; and than 30 μL of 8 μg/mL FXa solution was added, mixed well and incubated at 37° C. for 1 min, then 30 μL of pre-warmed 1.25 mM Xa chromogenic substrate SXa-11 was added. OD405 was detected by a microplate reader.
as §2, §3

[6] = target: T3, FIIa (Homo sapiens); assay: AT-dependent IIa inhibitory activity assay; details: in presence of AT; for IC50: read-out: Drug concentration required to inhibit 50% of coagulation factor activity (IC50, ng/mL) Ha (AT)
T3 construct: antithrombin (i.e., active coagulation factor IIa); purchased
T3 sequence (P01008 33-464): as above
Protocol: AT-dependent IIa inhibitory activity assay: Heparin Anti-FIIa kit was used for detection. To a 96-well plate, 30 μL of sample, control solution or Tris-HCl buffer (negative control) was added, and then 30 μL of 1 IU/mL AT solution was added, mixed well by shaking the plate and incubated at 37° C. for 2 min; 30 μL of 24 IU/mL FIIa solution was added, mixed well by shaking the plate and incubated for 2 min at 37° C., and then 30 μL of pre-warmed 1.25 mM FIIa specific chromogenic substrate CS-01 (38) was added, mixed well by shaking the plate. The OD405 was detected by a microplate reader and the IC50 value of FIIa inhibition of each sample was calculated.
as §2, §3

Molecule | IC50 [4] [nM] | IC50 [5] [nM] | IC50 [6] [nM] | Drug concentration required for multiplication of coagulation time (μg/mL) TT [1] | Drug concentration required for multiplication of coagulation time (μg/mL) PT [2] | Drug concentration required for multiplication of coagulation time (μg/mL) APTT [3] [µg/mL] | Drug concentration required to inhibit 50% of coagulation factor activity (IC50, ng/mL) Xase [4] | Drug concentration required to inhibit 50% of coagulation factor activity (IC50, ng/mL) Xa (AT) [5] | Drug concentration required to inhibit 50% of coagulation factor activity (IC50, ng/mL) Ha (AT) [6]
CC(=O)NC(CO)C(OC1OC(C(=O)O)C(OC2OC(COS(=O)(=O)O)C(OS(=O)(=O)O)C(OC3OC(C(=O)O)C(OC4OC(COS(=O)(=O)O)C(OS(=O)(=O)O)C(OC5OC(C(=O)O)C(OC6OC(COS(=O)(=O)O)C(OS(=O)(=O)O)C(OC7OC(C(=O)O)C(OC8OC(COS(=O)(=O)O)C(OS(=O)(=O)O)C(OC9OC(C(=O)O)C(OC%10OC(COS(=O)(=O)O)C(OS(=O)(=O)O)C(OC%11OC(C(=O)O)=CC(OC%12OC(C)C(OS(=O)(=O)O)C(O)C%12OS(=O)(=O)O)C%11O)C%10NC(C)=O)C(OC%10OC(C)C(OS(=O)(=O)O)C(O)C%10OS(=O)(=O)O)C9O)C8NC(C)=O)C(OC8OC(C)C(OS(=O)(=O)O)C(O)C8OS(=O)(=O)O)C7O)C6NC(C)=O)C(OC6OC(C)C(OS(=O)(=O)O)C(O)C6OS(=O)(=O)O)C5O)C4NC(C)=O)C(OC4OC(C)C(OS(=O)(=O)O)C(O)C4OS(=O)(=O)O)C3O)C2NC(C)=O)C(OC2OC(C)C(OS(=O)(=O)O)C(O)C2OS(=O)(=O)O)C1O)C(OS(=O)(=O)O)C(O)COS(=O)(=O)O [Compound A5, L-Fuc2S4S-(α1,3)-ΔUA-(α1,3)-{D-GaNAc4S6S-(β1,4)-[L-Fuc2S4S-(α1,3)]-D-GlcA-(β1,3)}n+1-D-GalNAc4S6S-ol] | 4.65 | > 985 | > 985 | # (>128 μg/mL) | # (>128 μg/mL) | 3.9 | – | – | –
L-Fuc2S4S-(α1,3)-ΔUA-(α1,3)-{D-GaNAc4S6S-(β1,4)-[L-Fuc2S4S-(α1,3)]-D-GlcA-(β1,3)}n+1-D-GalNAc4S6S-ol [Compound A1] | – | – | – | # (>128 μg/mL) | # (>128 μg/mL) | 60.1 | ## (>5000 ng/mL) | ## (>5000 ng/mL) | ## (>5000 ng/mL)
COC(=O)C1=CC(OC2OC(C)C(OS(=O)(=O)O)C(O)C2OS(=O)(=O)O)C(O)C(OC2C(NC(C)=O)C(OC3C(C(=O)OC)OC(OC4C(NC(C)=O)C(OC5C(C(=O)OC)OC(OC(C(CO)NC(C)=O)C(OS(=O)(=O)O)C(O)COS(=O)(=O)O)C(O)C5OC5OC(C)C(OS(=O)(=O)O)C(O)C5OS(=O)(=O)O)OC(COS(=O)(=O)O)C4OS(=O)(=O)O)C(O)C3OC3OC(C)C(OS(=O)(=O)O)C(O)C3OS(=O)(=O)O)OC(COS(=O)(=O)O)C2OS(=O)(=O)O)O1 [Compound A6, L-Fuc2S4S-(α1,3)-[6-Methyl-ΔUA-(α1,3)]-{D-GaNAc4S6S-(β1,4)-[L-Fuc2S4S-(α1,3)-]-D-6-Methyl-GlcA-(β1,4)}2-D-GalNAc4S6S-ol] | 26.5 | > 1940 | > 1940 | # (>128 μg/mL) | # (>128 μg/mL) | 7.5 | – | – | –

Now from value to molecule, other results behind:

IC50 [4] [nM] | IC50 [5] [nM] | IC50 [6] [nM] | Molecule | Drug concentration required for multiplication of coagulation time (μg/mL) TT [1] | Drug concentration required for multiplication of coagulation time (μg/mL) PT [2] | Drug concentration required for multiplication of coagulation time (μg/mL) APTT [3] [µg/mL] | Drug concentration required to inhibit 50% of coagulation factor activity (IC50, ng/mL) Xase [4] | Drug concentration required to inhibit 50% of coagulation factor activity (IC50, ng/mL) Xa (AT) [5] | Drug concentration required to inhibit 50% of coagulation factor activity (IC50, ng/mL) Ha (AT) [6]
29.5 | > 2300 | > 2300 | CC(=O)NC1C(OC2C(C(=O)O)OC(OC3C(NC(C)=O)C(OC(C(O)C(=O)O)C(OC4OC(C)C(OS(=O)(=O)O)C(OS(=O)(=O)O)C4O)C(O)CO)OC(COS(=O)(=O)O)C3OS(=O)(=O)O)C(O)C2OC2OC(C)C(OS(=O)(=O)O)C(OS(=O)(=O)O)C2O)OC(COS(=O)(=O)O)C(OS(=O)(=O)O)C1OC1OC(C(=O)O)=CC(OC2OC(C)C(OS(=O)(=O)O)C(OS(=O)(=O)O)C2O)C1O [Compound B2, L-Fuc3S4S-(α1,3)-L-ΔUA-(α1,3)-{D-GalNAc4S6S-(β1,4)-[L-Fuc3S4S-(α1,3)]-D-GlcA-(β1,3)}˜-D-GalNAc4S6S-(β1,4)-[L-Fuc3S4S-(α1,3)]-D-GlcA-ol] | # (>128 μg/mL) | # (>128 μg/mL) | 7.5 | – | – | –
9.56 | > 1580 | > 1580 | CCOC(=O)c1ccc(NCC(O)C(OC2OC(C)C(OS(=O)(=O)O)C(O)C2OS(=O)(=O)O)C(OC2OC(COS(=O)(=O)O)C(OS(=O)(=O)O)C(OC3OC(C(=O)O)C(OC4OC(COS(=O)(=O)O)C(OS(=O)(=O)O)C(OC5OC(C(=O)O)C(OC6OC(COS(=O)(=O)O)C(OS(=O)(=O)O)C(OC7OC(C(=O)O)=CC(OC8OC(C)C(OS(=O)(=O)O)C(O)C8OS(=O)(=O)O)C7O)C6NC(C)=O)C(OC6OC(C)C(OS(=O)(=O)O)C(O)C6OS(=O)(=O)O)C5O)C4NC(C)=O)C(OC4OC(C)C(OS(=O)(=O)O)C(O)C4OS(=O)(=O)O)C3O)C2NC(C)=O)C(O)C(=O)O)cc1 [Compound B11, L-Fuc2S4S-(α1,3)-L-ΔUA-(α1,3)-{D-GalNAc4S6S-(β1,4)-[L-Fuc2S4S-(α1,3)]-D-GlcA-(β1,3)}2-D-GalNAc4S6S-(β1,4)-[L-Fuc2S4S-(α1,3)]-D-1-deoxy-1-amino-GlcA-ol-N-4-benzoic ethyl ester] | # (>128 μg/mL) | # (>128 μg/mL) | 6.3 | – | – | –
26.3 | > 2210 | > 2210 | CC(=O)NC1C(OC2C(C(=O)O)OC(OC3C(NC(C)=O)C(OC4C(C(=O)O)OC(OCc5ccccc5)C(O)C4OC4OC(C)C(OS(=O)(=O)O)C(O)C4OS(=O)(=O)O)OC(COS(=O)(=O)O)C3OS(=O)(=O)O)C(O)C2OC2OC(C)C(OS(=O)(=O)O)C(O)C2OS(=O)(=O)O)OC(COS(=O)(=O)O)C(OS(=O)(=O)O)C1OC1OC(C(=O)O)=CC(OC2OC(C)C(OS(=O)(=O)O)C(O)C2OS(=O)(=O)O)C1O [Compound B9, L-Fuc2S4S-(α1,3)-L-ΔUA-(α1,3)-D-GaNAc4S6S-(D1,4)-[L-Fuc2S4S-(α1,3)]-D-GlcA-(β1,3)-D-GalNAc4S6S-(β1,4)-[L-Fuc2S4S-(α1,3)]-D-1-Benzyl-GlcA-ol] | # (>128 μg/mL) | # (>128 μg/mL) | 7.6 | – | – | –
26.7 | > 2170 | > 2170 | COC(=O)C1=CC(OC2OC(C)C(OS(=O)(=O)O)C(O)C2OS(=O)(=O)O)C(O)C(OC2C(NC(C)=O)C(OC3C(C(=O)OC)OC(OC4C(NC(C)=O)C(OC5C(C(=O)OC)OC(OCc6ccccc6)C(O)C5OC5OC(C)C(OS(=O)(=O)O)C(O)C5OS(=O)(=O)O)OC(COS(=O)(=O)O)C4OS(=O)(=O)O)C(O)C3OC3OC(C)C(OS(=O)(=O)O)C(O)C3OS(=O)(=O)O)OC(COS(=O)(=O)O)C2OS(=O)(=O)O)O1 [Compound B10, L-Fuc2S4S-(α1,3)-L-6-Methyl-ΔUA-(α1,3)-D-GaNAc4S6S-(β1,4)-[L-Fuc2S4S-(α1,3)]-D-6-Methyl-ΔUA-GlcA-(β1,3)-D-GalNAc4S6S-(β1,4)-[L-Fuc2S4S-(α1,3)]-D-O-1-Benzyl-6-Methyl-GlcA] | # (>128 μg/mL) | # (>128 μg/mL) | 7.9 | – | – | –
